Experimental findings from patent US12384769B2, “Heteroaryl-substituted aminoalkyl azole compounds as pesticides” (Elanco Animal Health GmbH, priority 2019, dated 2025) are described below.

What all share (format): in vivo
One experiment relates to Ctenocephalides felis. In words: Ctenocephalides felis oral test (CTECFE). The conditions noted are these: 48 h, 100 ppm in cattle blood, after 2 days. The method in brief:
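About 20 adult unfed fleas fed through parafilm on cattle blood held at 37° C and dosed with compound from a DMSO concentrate; flea chamber at room temperature. Percent mortality scored after 2 days.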

For another experiment, the system named is Nilaparvata lugens. In words: Nilaparvata lugens spray test. The conditions noted are these: 96 h, rice plants, after 4 days. As for the experimental part: Nilaparvata lugens—Spray Test
Solvent: 78.0 parts by weight of acetone • • 1.5 parts by weight of dimethylformamide
Emulsifier: alkylarylpolyglycol ether
To produce a suitable preparation of active compound, 1 part by weight of active compound is mixed with the stated amount of solvents and is diluted with water, containing an emulsifier concentration of 1000 ppm, to the desired concentration. Further test concentrations are prepared by dilution with emulsifier containing water.
Rice plants (Oryza sativa) are sprayed with a preparation of the active ingredient of the desired concentration and the plants are infested with the brown planthopper (Nilaparvata lugens).
After 4 days mortality in % is determined. 100% means all planthoppers have been killed and 0% means none of the planthoppers have been killed.

Experiment [1] concerns Rhipicephalus microplus (strain Parkhurst, resistant against synthetic pyrethroids). The experiment in a line: Rhipicephalus microplus in-vitro contact test, larval cattle tick (BOOPMI Contact). As to conditions: 5 μg/cm^2 (=500 g/ha), after 48 hours, read-out: activity (efficacy, larvae dead or moribund). Summed up: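 Efficacy, expressed as percentage of larvae dead or moribund, is judged by negative geotactic behaviour 48 h after larvae (20-50 per tube) enter tubes whose inner walls carry a dried acetone film of compound, 5 μg/cm² at 900 ppm. Incubation: horizontal, 27 °C, 85% relative humidity.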

The next experiment concerns Diabrotica balteata. The experiment in a line: Diabrotica balteata spray test. As to conditions: 168 h, 500 g/ha (=160 μg/well), wheat seeds, after 7 days, read-out: activity (efficacy, seedlings grown). Summed up:
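Efficacy was read 7 days after infesting each unit with 10–20 banded cucumber beetle larvae, as % of seedlings growing like untreated, uninfested controls. Before infestation, wheat seeds germinated 1 day on agar (5 per well) were sprayed with the active ingredient. The active was formulated in acetone/DMF and diluted in water containing emulsifier.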

Consider `Cc1cc2oc(N[C@@H](C)c3ncnn3-c3ncccn3)nc2cc1Br` [Example I-007], for which, in the experiment with Ctenocephalides felis, the mortality at 100 ppm amounted to 100%. The mortality at 500 g/ha in the experiment on Nilaparvata lugens is 100%. Also, in experiment [1], the pest or weed control at 5 µg/cm2 was determined as 100%.

With `C[C@H](Nc1nc2ccccc2s1)c1ncnn1-c1ncccn1` [Example I-009], in the experiment on Diabrotica balteata, the pest or weed control at 160 µg/disc, 500 g/ha was determined as 80%. Also, the mortality at 500 g/ha in the experiment with Nilaparvata lugens was found to be 100%.

In general, mortality refers to the share of the test organisms that died. Read a low mortality as more survivors.
